Test results reported in ChEMBL document CHEMBL1201862, “PubChem BioAssay data set” (2004).
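Test compounds were applied to cells in 96-well plates for 48 hours at 5 doses. GI50 = concentration required for 50% inhibition of growth.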 The source made the active and inactive calls. No stated cut-off is given here; in the data, active = GI50 up to about 1.1 µM and inactive = higher.

Key:
Assay in all cases: DTP human tumour cell line panel, 48 h
[1] = system: Hs-578T
[2] = system: SR
[3] = system: SF-295
[4] = system: 786-0
[5] = system: NCI-H226
[6] = system: HCT-15
[7] = system: LOX IMVI
[8] = system: NCI/ADR-RES
[9] = system: OVCAR-8
[10] = system: Malme-3M
[11] = system: SK-MEL-5
[12] = system: SW-620
[13] = system: SF-539
[14] = system: RXF 393
[15] = system: UACC-62
[16] = system: EKVX
[17] = system: HOP-62
[18] = system: OVCAR-5
[19] = system: MDA-N
[20] = system: HT-29
[21] = system: NCI-H460
[22] = system: U-251
[23] = system: A498
[24] = system: MDA-MB-435
[25] = system: SF-268
[26] = system: K562
[27] = system: COLO 205
[28] = system: CCRF-CEM
[29] = system: CAKI-1
[30] = system: SK-OV-3
[31] = system: HCC 2998
[32] = system: MOLT-4
[33] = system: UACC-257
[34] = system: HL-60
[35] = system: DU-145
[36] = system: OVCAR-4
[37] = system: SNB-19
[38] = system: A549
[39] = system: PC-3
[40] = system: NCI-H23
[41] = system: SK-MEL-2
[42] = system: UO-31
[43] = system: SNB-75
[44] = system: SK-MEL-28
[45] = system: T47D
[46] = system: TK-10
[47] = system: ACHN
[48] = system: M14
[49] = system: RPMI-8226
[50] = system: MCF7
[51] = system: HOP-92
[52] = system: IGROV-1
[53] = system: OVCAR-3
[54] = system: KM12
[55] = system: MDA-MB-231
[56] = system: NCI-H522
[57] = system: HCT-116
[58] = system: SN12C

## C[C@@H](c1ccccc1)C(CC#N)[C@H]1CCC[C@]1(O)C#Cc1ccc2c(c1)OCO2 (stereo partly specified)
[1]
  GI50: 20.8 µM (inactive)
[2]
  GI50: 19.7 µM (inactive)
[3]
  GI50: 18.1 µM (inactive)
[4]
  GI50: 17.5 µM (inactive)
[5]
  GI50: 17.5 µM (inactive)
[6]
  GI50: 16 µM
[7]
  GI50: 18.5 µM (inactive)
[8]
  GI50: 16 µM (inactive)
[9]
  GI50: 16.9 µM (inactive)
[10]
  GI50: 15.8 µM (inactive)
[11]
  GI50: 18.6 µM (inactive)
[12]
  GI50: 17.9 µM (inactive)
[13]
  GI50: 10.6 µM (inactive)
[14]
  GI50: 14.4 µM (inactive)
[15]
  GI50: 16.6 µM (inactive)
[16]
  GI50: 19.5 µM (inactive)
[17]
  GI50: 16.8 µM (inactive)
[18]
  GI50: 16.6 µM (inactive)
[19]
  GI50: 16.7 µM (inactive)
[20]
  GI50: 15.2 µM (inactive)
[21]
  GI50: 16.1 µM (inactive)
[22]
  GI50: 16.9 µM (inactive)
[23]
  GI50: 19.8 µM (inactive)
[24]
  GI50: 16.6 µM (inactive)
[25]
  GI50: 19.6 µM (inactive)
[26]
  GI50: 18.1 µM (inactive)
[27]
  GI50: 18.2 µM (inactive)
[28]
  GI50: 14.8 µM (inactive)
[29]
  GI50: 15.8 µM (inactive)
[30]
  GI50: 18.1 µM (inactive)
[31]
  GI50: 16.3 µM (inactive)
[32]
  GI50: 8.02 µM (inactive)
[33]
  GI50: 18.2 µM (inactive)
[34]
  GI50: 18.3 µM (inactive)
[35]
  GI50: 16.8 µM (inactive)
[36]
  GI50: 15.8 µM (inactive)
[37]
  GI50: 16.1 µM (inactive)
[38]
  GI50: 16.3 µM (inactive)
[39]
  GI50: 15.9 µM (inactive)
[40]
  GI50: 17.7 µM (inactive)
[41]
  GI50: 17.6 µM (inactive)
[42]
  GI50: 14.4 µM (inactive)
[43]
  GI50: 16.5 µM (inactive)
[44]
  GI50: 16.1 µM (inactive)
[45]
  GI50: 15.7 µM (inactive)
[46]
  GI50: 16 µM (inactive)
[47]
  GI50: 16.6 µM (inactive)
[48]
  GI50: 16.9 µM (inactive)
[49]
  GI50: 23.2 µM (inactive)
[50]
  GI50: 18.4 µM (inactive)
[51]
  GI50: 14 µM (inactive)
[52]
  GI50: 14.3 µM (inactive)
[53]
  GI50: 15.6 µM (inactive)
[54]
  GI50: 16.7 µM (inactive)
[55]
  GI50: 17.5 µM (inactive)
[56]
  GI50: 15.3 µM (inactive)

## COC1(OC)N=C(N)C2(C#N)/C(=N/N(C)C)CC(C)C12C#N (stereo unspecified)
[1]
  GI50: > 100 µM (inactive)
[2]
  GI50: > 100 µM (inactive)
[3]
  GI50: > 100 µM (inactive)
[4]
  GI50: > 100 µM (inactive)
[5]
  GI50: > 100 µM (inactive)
[6]
  GI50: > 100 µM
[7]
  GI50: > 100 µM (inactive)
[8]
  GI50: > 100 µM (inactive)
[9]
  GI50: > 100 µM (inactive)
[10]
  GI50: > 100 µM (inactive)
[11]
  GI50: > 100 µM (inactive)
[12]
  GI50: > 100 µM (inactive)
[13]
  GI50: > 100 µM (inactive)
[14]
  GI50: > 100 µM (inactive)
[15]
  GI50: > 100 µM (inactive)
[16]
  GI50: > 100 µM (inactive)
[17]
  GI50: > 100 µM (inactive)
[18]
  GI50: > 100 µM (inactive)
[19]
  GI50: > 100 µM (inactive)
[20]
  GI50: > 100 µM (inactive)
[22]
  GI50: > 100 µM (inactive)
[23]
  GI50: > 100 µM (inactive)
[24]
  GI50: > 100 µM (inactive)
[25]
  GI50: > 100 µM (inactive)
[26]
  GI50: > 100 µM (inactive)
[27]
  GI50: > 100 µM (inactive)
[28]
  GI50: > 100 µM (inactive)
[29]
  GI50: > 100 µM (inactive)
[30]
  GI50: > 100 µM (inactive)
[31]
  GI50: > 100 µM (inactive)
[32]
  GI50: > 100 µM (inactive)
[33]
  GI50: > 100 µM (inactive)
[34]
  GI50: > 100 µM (inactive)
[35]
  GI50: > 100 µM (inactive)
[37]
  GI50: > 100 µM (inactive)
[57]
  GI50: > 100 µM (inactive)
[38]
  GI50: > 100 µM (inactive)
[39]
  GI50: > 100 µM (inactive)
[40]
  GI50: > 100 µM (inactive)
[41]
  GI50: > 100 µM (inactive)
[42]
  GI50: > 100 µM (inactive)
[43]
  GI50: 71.9 µM (inactive)
[44]
  GI50: > 100 µM (inactive)
[45]
  GI50: > 100 µM (inactive)
[46]
  GI50: > 100 µM (inactive)
[47]
  GI50: > 100 µM (inactive)
[58]
  GI50: > 100 µM (inactive)
[48]
  GI50: > 100 µM (inactive)
[49]
  GI50: > 10 µM (inactive)
[50]
  GI50: > 100 µM (inactive)
[51]
  GI50: > 100 µM (inactive)
[52]
  GI50: > 100 µM (inactive)
[54]
  GI50: > 100 µM (inactive)
[55]
  GI50: > 100 µM (inactive)
[56]
  GI50: > 100 µM (inactive)
